Laboratory results from PMC10201364 (MicrobiologyOpen, 2023).

Experiments:
[1] = system: 274‐bp DNA fragment harboring the entire barR‐aminotransferase intergenic region (WT promoter); test: EMSA of Ah‐BarR with WT promoter fragment; parameters: species or system Acidianus hospitalis; conditions: 5 mM β‐alanine added to binding reactions
Experimental: Electrophoretic mobility shift assays (EMSAs) were performed as described (Charlier & Bervoets, [2022]). Either the forward or the reverse primer was radioactively labeled, using fresh γ‐^32P‐ATP (Perkin Elmer) and T4 polynucleotide kinase (Thermo Scientific). Labeled promoter fragments were obtained by PCR using Taq DNA polymerase (Promega), a ^32P‐labeled primer, a non‐labeled second primer, and a plasmid template (Table A4). Labeled fragments were purified by acrylamide gel electrophoresis. EMSA reactions were prepared in protein‐DNA binding buffer (20 mM Tris‐HCl pH 8.0, 50 mM NaCl, 0.4 mM EDTA, 0.1 mM DTT, 1 mM MgCl2, 12.5% glycerol) with each reaction containing 1 µL (20 cps/µL) of ^32P‐labeled promoter fragment, an excess (25 µg/mL) of non‐labeled, nonspecific competitor DNA (sonicated salmon sperm DNA, Invitrogen), and purified Ah‐BarR protein. Amino acids were added to the reactions in the mentioned concentrations. […] Scans of the gels were analyzed by densitometry using ImageJ (Schneider et al., [2012]), after which GraphPad PRISM (version 9.3.1 for Windows, GraphPad Software, www.graphpad.com) was used to perform Hill curve fitting using nonlinear regression for saturated binding (one site, specific binding), and to determine apparent equilibrium dissociation constants K D.

[2] = target: Ah‐BarR (P ah‐at aminotransferase promoter, mKate2 reporter) (Acidianus hospitalis, UniProt F4B5V3); test: cell-based
Experimental: (§1) Reporter gene assays were performed as previously described (Bernauw et al., [2022]). pPRC6 and pITC variants (Table 1) were co‐transformed in E. coli MG1655 chemical competent cells using heat shock transformation. Transformant colonies of the Ah‐BarR biosensor strains were picked to inoculate wells of a transparent 96‐well plate (Greiner Bio‐One), each well filled with 200 µL of MOPS EZ Rich Defined medium (Teknova), prepared without the addition of the 5X EZ Supplement, after which the plate was incubated overnight in a ThermoMixer C (Eppendorf) at 30°C and 300 rpm. Next, a black 96‐well plate was filled with a naringenin solution prepared in ethanol (250 mg/L or 2.5 g/L), after which a Breathe‐Easy sealing membrane (Sigma‐Aldrich) was applied and the ethanol was evaporated in a ThermoMixer C (Eppendorf) at 75°C. […] Finally, the plate was sealed again using a Breathe‐Easy sealing membrane (Sigma‐Aldrich).
(§2) Plates were incubated at 30°C and 300 rpm for 40 h in a Synergy H1 microplate reader (BioTek) with measurements of OD600 and fluorescence (excitation wavelength: 588 nm, emission wavelength: 633 nm) being taken every 20 min. The gain was set to 140 for all measurements, except for the measurements with the amino acids (pools and separately), where the gain was set to 150. […] In addition, wells solely containing medium were measured as well to correct for the background signal.
(§3) Reporter expression was analyzed at t = 30 h, when all cultures had reached the stationary phase, by taking into account three subsequent time points (t–1, t, t+1). The corrected FL/OD600 value was calculated for each replicate (n = 4) as follows: FL/ODcor=FLt−1−FLmed,t−1/ODt−1−ODmed,t−1+FLt−FLmed,t/ODt−ODmed,t+FLt+1−FLmed,t+1/ODt+1−ODmed,t+1/3
(§4) Response curves were fitted to a Hill function of the shape P(M)=b+aM^n/θ^n+M^nforaβ−alanine−inducible responseb+aθ^n/θ^n+M^nforaβ−alanine−repressible response according to a previously published procedure (Landry et al., [2018]) with minor adaptations. […] Briefly, lmfit 1.1.0 was used to fit all replicates of a response curve to the appropriate Hill function using the Levenberg‐Marquardt algorithm (Moré, [1978]; Newville et al., [2016]). […] The dynamic range was estimated as μ=a/b .

[3] = target: Ah‐BarR (P ah‐barR promoter, mKate2 reporter) (Acidianus hospitalis, UniProt F4B5V3); test: cell-based
Experimental: as §1, §2, §3, §4

[4] = target: Ah‐BarR M103A (P ah‐barR promoter, mKate2 reporter) (Acidianus hospitalis, UniProt F4B5V3, M103A); test: cell-based
Experimental: as §1, §2, §3, §4

[5] = target: Ah‐BarR T134A (P ah‐barR promoter, mKate2 reporter) (Acidianus hospitalis, UniProt F4B5V3, T134A); test: cell-based
Experimental: as §1, §2, §3, §4

[6] = target: Ah‐BarR T136A (P ah‐barR promoter, mKate2 reporter) (Acidianus hospitalis, UniProt F4B5V3, T136A); test: cell-based
Experimental: as §1, §2, §3, §4

[7] = target: Ah‐BarR M103N (P ah‐barR promoter, mKate2 reporter) (Acidianus hospitalis, UniProt F4B5V3, M103N); test: cell-based; assay type: cell-based
Experimental: as §1, §2, §3, §4

[8] = target: Ah‐BarR M103T (P ah‐barR promoter, mKate2 reporter) (Acidianus hospitalis, UniProt F4B5V3, M103T); test: cell-based; assay type: cell-based
Experimental: as §1, §2, §3, §4

[9] = target: Ah‐BarR trunc (P ah‐barR promoter, mKate2 reporter) (Acidianus hospitalis, UniProt F4B5V3)
Experimental: as §1, §2, §3, §4

[10] = BS2, β‐alanine 0–10 mM, 20 mg/L naringenin, Hill fit
[11] = BS1, β‐alanine 0–10 mM, 20 mg/L naringenin, t = 30 h, Hill fit
[12] = BS1 M103A, β‐alanine 0–10 mM, 20 mg/L naringenin, Hill fit
[13] = BS1 T134A, β‐alanine 0–10 mM, 20 mg/L naringenin, Hill fit
[14] = BS1 T136A, β‐alanine 0–10 mM, 20 mg/L naringenin, Hill fit
[15] = BS1 M103T, β‐alanine 0–10 mM, 20 mg/L naringenin, Hill fit

Chain of Ah‐BarR M103A (P ah‐barR promoter, mKate2 reporter) (F4B5V3 entry or part of it M103A): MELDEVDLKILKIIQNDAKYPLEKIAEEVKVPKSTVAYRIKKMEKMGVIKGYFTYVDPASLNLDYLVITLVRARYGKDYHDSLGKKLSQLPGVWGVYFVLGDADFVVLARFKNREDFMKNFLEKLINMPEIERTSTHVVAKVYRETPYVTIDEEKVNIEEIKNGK
Chain of Ah‐BarR M103N (P ah‐barR promoter, mKate2 reporter) (F4B5V3 entry or part of it M103N): as the sequence (F4B5V3 entry or part of it M103A) above, with A103N counted along it
Chain of Ah‐BarR T134A (P ah‐barR promoter, mKate2 reporter) (F4B5V3 entry or part of it T134A): as the sequence (F4B5V3 entry or part of it M103A) above, with A103M, T134A counted along it
Chain of Ah‐BarR trunc (P ah‐barR promoter, mKate2 reporter) (F4B5V3 entry or part of it): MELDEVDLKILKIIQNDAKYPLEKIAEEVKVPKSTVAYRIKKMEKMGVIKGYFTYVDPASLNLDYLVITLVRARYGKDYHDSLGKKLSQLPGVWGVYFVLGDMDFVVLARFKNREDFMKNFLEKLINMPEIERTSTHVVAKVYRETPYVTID
Chain of Ah‐BarR T136A (P ah‐barR promoter, mKate2 reporter) (F4B5V3 entry or part of it T136A): as the sequence (F4B5V3 entry or part of it M103A) above, with A103M, T136A counted along it
Chain of Ah‐BarR (P ah‐barR promoter, mKate2 reporter) (F4B5V3 1-165): as the sequence (F4B5V3 entry or part of it M103A) above, with A103M counted along it
Chain of Ah‐BarR (P ah‐at aminotransferase promoter, mKate2 reporter) (F4B5V3 1-165): as the sequence (F4B5V3 entry or part of it M103A) above, with A103M counted along it
Chain of Ah‐BarR M103T (P ah‐barR promoter, mKate2 reporter) (F4B5V3 entry or part of it M103T): as the sequence (F4B5V3 entry or part of it M103A) above, with A103T counted along it

## NCCC(=O)O [β‐alanine]
[1]
  effect of β‐alanine on formation of Ah‐BarR‐DNA complexes: did not significantly alter
[2]
  EC50: 110 µM
[2]; BS2, 20 mg/L naringenin
  Hill coefficient n: 1.62
[2]; BS2, µ = a/b
  Dynamic range µ: 1.58
[2]; [10]
  Basal fluorescence output b: 313 RFU
  Maximum fluorescence increase a: 494 RFU
[3]
  EC50: 370 µM
[3]; BS1, 20 mg/L naringenin
  Hill coefficient n: 1.77
[3]; BS1, µ = a/b
  Dynamic range µ: 3.07
[3]; [11]
  Basal fluorescence output b: 2226 RFU
  Maximum fluorescence increase a: 6828 RFU
[3]; BS1 and BS2 strains, 20 mg/L naringenin, individual amino acids of pools 1 and 7 at 3/5 mM
  ligand specificity: effect on transcriptional regulation of barR and at: specifically ascribed to β‐alanine
[4]
  EC50: 1350 µM
[4]; BS1 M103A, 20 mg/L naringenin
  Hill coefficient n: 1.88
[4]; BS1 M103A, µ = a/b
  Dynamic range µ: 3.25
[4]; [12]
  Basal fluorescence output b: 2289 RFU
  Maximum fluorescence increase a: 7429 RFU
[5]
  EC50: 1610 µM
[5]; BS1 T134A, 20 mg/L naringenin
  Hill coefficient n: 1.68
[5]; BS1 T134A, µ = a/b
  Dynamic range µ: 4.06
[5]; [13]
  Basal fluorescence output b: 2145 RFU
  Maximum fluorescence increase a: 8703 RFU
[6]
  EC50: 960 µM
[6]; BS1 T136A, 20 mg/L naringenin
  Hill coefficient n: 1.36
[6]; BS1 T136A, µ = a/b
  Dynamic range µ: 3.31
[6]; [14]
  Basal fluorescence output b: 2469 RFU
  Maximum fluorescence increase a: 8171 RFU
[7]
  Basal fluorescence output b: 2281 RFU
  Dynamic range µ: 4.11
  EC50: 460 µM
  Hill coefficient n: 1.48
  Maximum fluorescence increase a: 9373 RFU
[8]
  EC50: 320 µM
[8]; BS1 M103T, 20 mg/L naringenin
  Hill coefficient n: 1.36
[8]; BS1 M103T, µ = a/b
  Dynamic range µ: 2.49
[8]; [15]
  Basal fluorescence output b: 3184 RFU
  Maximum fluorescence increase a: 7915 RFU
[9]
  Basal fluorescence output b: 2485 RFU
  Dynamic range µ: 3.56
  Hill coefficient n: 1.60
  Maximum fluorescence increase a: 8840 RFU
[9]; read-out: Threshold θ, BS1 trunc, 20 mg/L naringenin
  EC50: 260 µM
